Data from patent US20080280926A1, “Phosphodiesterase Inhibitors” (priority 2003, published 2008).

| Structure (SMILES) | melting point [°C] |
| --- | --- |
| C=CCNC(=O)Nc1ncnc2c1nc(-n1cccn1)n2Cc1ccccc1 [Compound No. 12, 1-Allyl-3-(9-benzyl-8-pyrazol-1-yl-9H-purin-6-yl)-urea] | 189.5 to 199 |
| CC(C)(C)C(=O)Nc1ncnc2c1nc(-n1cccn1)n2Cc1ccccc1 [Compound No. 1, N-(9-Benzyl-8-pyrazol-1-yl-9H-purin-6-yl)-2,2-dimethylpropionamide] | 124 to 125 |
